From patent US11155523B2, “Biphenyl compound as CCR2/CCR5 receptor antagonist” (Medshine Discovery Inc., priority 2016, dated 2021) come the findings set out here.

The first assay deals with T1, CCR2 (Homo sapiens, UniProt P41597).
T1 construct: expressed in transfected cells; host or cells: HEK293, clone C7, passage P6
T1 sequence (P41597 whole entry, species assumed): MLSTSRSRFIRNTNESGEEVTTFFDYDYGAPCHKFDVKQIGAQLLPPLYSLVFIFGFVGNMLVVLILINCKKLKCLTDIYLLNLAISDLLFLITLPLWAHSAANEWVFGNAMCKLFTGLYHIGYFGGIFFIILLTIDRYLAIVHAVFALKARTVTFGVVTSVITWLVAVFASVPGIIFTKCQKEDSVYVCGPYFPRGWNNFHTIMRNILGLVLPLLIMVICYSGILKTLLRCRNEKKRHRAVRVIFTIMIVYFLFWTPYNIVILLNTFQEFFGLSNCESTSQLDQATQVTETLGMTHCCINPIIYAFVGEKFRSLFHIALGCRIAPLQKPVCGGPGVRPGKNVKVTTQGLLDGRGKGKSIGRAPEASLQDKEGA
Description: CCR2 in vitro test: intracellular calcium signal detected by FLIPR. The assay is classed as cell-based. As to conditions: HEK293 cells expressing CCR2, agonist MCP-1 at EC80, calcium signal. The protocol:
(§1) Experimental Example 1: CCR2/CCR5 In Vitro Test
(§2) The intracellular calcium signal was detected by FLIPR, and the IC50 value of the compound was used as an index to evaluate the inhibitory effect of the compound on CCR2 and CCR5 receptors.
(§3) 1. Cell line: The cells were inoculated and incubated in a 5% CO2 incubator at 37° C. overnight.
(§4) CCR2/CCR5 density: 1 M (20 k/well)
(§5) 2. Reagents: Fluo-4 Direct, (Invitrogen, Cat #F10471)
(§6) The compound was dissolved in DMSO to prepare a 10 mM solution, and the compound solution was placed in a nitrogen box.
(§7) Agonist reference compounds:
(§8) Preparation of probenecid in FLIPR assay buffer: 1 mL of FLIPR assay buffer was added to […] of probenecid to prepare a 250 mM solution, which is prepared fresh daily.
(§9) 2× (8 μM) Fluo-4 Direct™ Loading Buffer (per 10 mL) • Thaw a bottle of Fluo-4 Direct™ crystal (F10471). • Add 10 mL of FLIPR assay buffer to the vial. • Add 0.2 mL of probenecid to each 10 mL of Fluo-Direct. The final concentration of the assay was 2.5 mM. • Rotate it and place for >5 minutes (in absence of light). • Prepare fresh daily.
(§10) MCP-1 was diluted in FLIPR assay buffer 1:2 into 10 points, starting at 0.5 uM (final 100 nM). RANTES was diluted in FLIPR assay buffer 1:3 into 10 points, starting at 0.5 uM (final 100 nM). 20 uL of serially diluted compound buffer was added to each well of the DRC plate according to the compound plate map.
(§11) Standard compound was diluted in DMSO 1:3 into 11 points, starting at 1 mM. Test compound was diluted in DMSO 1:3 into 11 points, starting at 2 mM. 250 nL of compound solution was transferred into a cell plate using Echo (Greiner #781946).
(§12) (c) Take the cell plate out of the incubator, and gently dispense 20 uL of 2× Fluo-4 Direct wash-free loading buffer into a 384-well cell culture plate using a pipette. The final cell plate is 40 μL in volume.
(§13) (d) Incubate for 50 minutes at 37° C. under 5% CO2, and for 10 minutes at room temperature.
(§14) (e) Take the cell plate out of the incubator, and place it in FLIPR. Place the composite plate and the tip box in FLIPR.
(§15) (f) For DRC plate: • 1) Run the program on FLIPRTETRA. • 2) Read the fluorescent signal. • 3) Transfer 10 μL of compound from the DRC plate to the cell plate. • 4) Read the fluorescent signal. • 5) Calculate the “maximum−minimum” from Read 90 to the maximum allowed. Use FLIPR to calculate the EC80 value of each cell line. • 6) Prepare 5×EC80 concentration of the agonist reference compound.
(§16) (g) For the composite plate (1-add): • 1) Run the program on FLIPRTETRA. • 2) Transfer 10 μl, of 5×EC80 concentration of the agonist reference compound from the composite plate to the cell plate. • 3) Read the fluorescent signal. • 4) Calculate the “maximum−minimum” from Read 90 to the maximum allowed.
(§17) (h) Analyze the data using Prism, and calculate the IC50 value of the compound.
Take `CCCCOCCOc1ccc(-c2ccc(C3CCCC3)c(/C=C/C(=O)Nc3ccc([S@+]([O-])Cc4c(C)ncn4CC)cc3)c2)cc1` [WX073]: the IC50 – broadly, the concentration needed to halve the response being measured – is 11.9 nM.
As to `CCCn1cncc1C[S@+]([O-])c1ccc(NC(=O)/C=C/c2cccc(-c3ccc(OCC)cc3)c2)cc1` [WX004], the IC50 was 153 nM.
For `CCCCOc1ccc(-c2ccc(OCCCF)c(/C=C/C(=O)Nc3ccc([S@@+]([O-])Cc4cncn4CCC)cc3)c2)cc1` [WX024], the IC50 is 63.1 nM.
As for `CCCn1cncc1C[S@+]([O-])c1ccc(NC(=O)/C=C/c2cccc(-c3ccc(N4CCCC4)cc3)c2)cc1` [WX037], the IC50 came out at 62.2 nM.
For the compound `CCCCOCCOc1ccc(-c2cc(/C=C/C(=O)Nc3ccc([S@@+]([O-])Cc4cncn4CCC)cc3)c(OC)c(OC)c2)cc1` [WX035], the IC50 worked out at 215 nM.
On the same count and under the same terms, the same measure for `CCCOCCOc1ccc(-c2ccc(OC(F)F)c(/C=C/C(=O)Nc3ccc([S@+]([O-])Cc4c(C)ncn4CCC)cc3)c2)cc1` [WX080]: 25.1 nM; for `CCCCOCCOc1ccc(-c2cccc(/C=C/C(=O)Nc3ccc([S@@+]([O-])Cc4cncn4CCC)cc3)c2)cc1` [WX001]: 29.9 nM; for `CCCCOc1ccc(-c2ccc(OC(F)F)c(/C=C/C(=O)Nc3ccc([S@@+]([O-])Cc4cncn4CCC)cc3)c2)cc1` [WX018]: 43.5 nM.
With `CCCCOc1ccc(-c2ccc(Cl)c(/C=C/C(=O)Nc3ccc([S@@+]([O-])Cc4cncn4CCC)cc3)c2)cc1` [WX025], the IC50 came out at 127 nM.
As for `CCCCOCCOc1ccc(-c2ccc(C3CCCC3)c(/C=C/C(=O)Nc3ccc([S@@+]([O-])Cc4c(C)ncn4CC)cc3)c2)cc1` [WX072], the IC50 is 11.9 nM.
Take `CCCCOCCOc1ccc(-c2ccc(OC)c(/C=C/C(=O)Nc3ccc([S@@+]([O-])Cc4c(C)ncn4CCC)cc3)c2)cc1` [WX076]: the IC50 was 42.2 nM.
Turning to `CCCCOCCOc1ccc(-c2cccc(/C=C/C(=O)Nc3ccc([S+]([O-])Cc4cncn4CC4CC4)cc3)c2)cc1` (stereo not drawn) [WX023], the IC50 came to 37.1 nM.
Same read-out and setting: the value for `CCCCOCCOc1ccc(-c2ccc(CC)c(/C=C/C(=O)Nc3ccc([S@@+]([O-])Cc4cncn4CCC)cc3)c2)cc1` [WX005] was 12.1 nM; that for `CCCCOCCOc1ccc(-c2cccc(/C=C/C(=O)Nc3ccc([S+]([O-])Cc4cncn4CCCC)cc3)c2)cc1` (stereo not drawn) [WX028] was 86.4 nM.
In the case of `CCCCOCCOc1ccc(-c2ccc(OC(C)C)c(/C=C/C(=O)Nc3ccc([S@@+]([O-])Cc4cncn4CCC)cc3)c2)cc1` [WX033], the IC50 was found to be 56.3 nM.
Consider `CCCCOCCOc1ccc(-c2ccc([S+]([O-])C(C)C)c(/C=C/C(=O)Nc3ccc([S@@+]([O-])Cc4c(C)ncn4CC)cc3)c2)cc1` (stereo partly drawn) [WX057], for which the IC50 was 24.7 nM.
As for `CCCCOc1ccc(-c2ccc(Cl)c(/C=C/C(=O)Nc3ccc([S+]([O-])Cc4cncn4CC4CC4)cc3)c2)cc1` (stereo not drawn) [WX021], the IC50 was 64.5 nM.
For `CCCOCCOc1ccc(-c2ccc(OC)c(/C=C/C(=O)Nc3ccc([S@@+]([O-])Cc4c(C)ncn4CC)cc3)c2)cc1` [WX065], the IC50 is 49.6 nM.

For the next assay, the target named is T2, CCR5 (Homo sapiens, UniProt P51681).
T2 construct: expressed in transfected cells; host or cells: HEK293, clone C13, passage P4
T2 sequence (P51681 whole entry, species assumed): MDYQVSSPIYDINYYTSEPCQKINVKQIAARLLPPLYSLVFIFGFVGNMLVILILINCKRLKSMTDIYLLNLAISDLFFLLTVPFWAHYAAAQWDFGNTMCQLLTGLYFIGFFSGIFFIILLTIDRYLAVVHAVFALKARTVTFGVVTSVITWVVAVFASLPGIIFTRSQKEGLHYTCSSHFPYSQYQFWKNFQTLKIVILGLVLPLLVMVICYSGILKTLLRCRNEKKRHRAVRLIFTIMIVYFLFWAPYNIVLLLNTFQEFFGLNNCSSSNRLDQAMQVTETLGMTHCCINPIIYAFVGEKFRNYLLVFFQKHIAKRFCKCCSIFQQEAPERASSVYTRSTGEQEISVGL
Description: CCR5 in vitro test: intracellular calcium signal detected by FLIPR. The class given is cell-based. The following applies: HEK293 cells expressing CCR5, agonist RANTES at EC80, calcium signal. The protocol: as §1, §2, §3, §4, §5, §6, §7, §8, §9, §10, §11, §12, §13, §14, §15, §16, §17
Take `CCCCOCCOc1ccc(-c2ccc(C3CCCC3)c(/C=C/C(=O)Nc3ccc([S@+]([O-])Cc4c(C)ncn4CC)cc3)c2)cc1` [WX073]: the IC50 is 6.5 nM.
The same measure, in the same setting: the same measure for `CCCn1cncc1C[S@+]([O-])c1ccc(NC(=O)/C=C/c2cccc(-c3ccc(OCC)cc3)c2)cc1` [WX004]: 7.1 nM.
With `CCCCOc1ccc(-c2ccc(OCCCF)c(/C=C/C(=O)Nc3ccc([S@@+]([O-])Cc4cncn4CCC)cc3)c2)cc1` [WX024], the IC50 was 1.3 nM.
Same read-out and setting: the value for `CCCn1cncc1C[S@+]([O-])c1ccc(NC(=O)/C=C/c2cccc(-c3ccc(N4CCCC4)cc3)c2)cc1` [WX037] was 44.2 nM; that for `CCCCOCCOc1ccc(-c2cc(/C=C/C(=O)Nc3ccc([S@@+]([O-])Cc4cncn4CCC)cc3)c(OC)c(OC)c2)cc1` [WX035] was 16.1 nM.
On the same count and under the same terms, the value for `CCCOCCOc1ccc(-c2ccc(OC(F)F)c(/C=C/C(=O)Nc3ccc([S@+]([O-])Cc4c(C)ncn4CCC)cc3)c2)cc1` [WX080] was 15.1 nM; that for `CCCCOCCOc1ccc(-c2cccc(/C=C/C(=O)Nc3ccc([S@@+]([O-])Cc4cncn4CCC)cc3)c2)cc1` [WX001] was 9.3 nM.
In the case of `CCCCOc1ccc(-c2ccc(OC(F)F)c(/C=C/C(=O)Nc3ccc([S@@+]([O-])Cc4cncn4CCC)cc3)c2)cc1` [WX018], the IC50 came to 7.3 nM.
On to `CCCCOc1ccc(-c2ccc(Cl)c(/C=C/C(=O)Nc3ccc([S@@+]([O-])Cc4cncn4CCC)cc3)c2)cc1` [WX025], for which the 50% inhibitory concentration (IC50) came out at 7.4 nM.
With `CCCCOCCOc1ccc(-c2ccc(C3CCCC3)c(/C=C/C(=O)Nc3ccc([S@@+]([O-])Cc4c(C)ncn4CC)cc3)c2)cc1` [WX072], the IC50 amounted to 5.9 nM.
In the case of `CCCCOCCOc1ccc(-c2ccc(OC)c(/C=C/C(=O)Nc3ccc([S@@+]([O-])Cc4c(C)ncn4CCC)cc3)c2)cc1` [WX076], the IC50 is 8.5 nM.
Take `CCCCOCCOc1ccc(-c2cccc(/C=C/C(=O)Nc3ccc([S+]([O-])Cc4cncn4CC4CC4)cc3)c2)cc1` (stereo not drawn) [WX023]: the IC50 was found to be 53.3 nM.
For the compound `CCCCOCCOc1ccc(-c2ccc(CC)c(/C=C/C(=O)Nc3ccc([S@@+]([O-])Cc4cncn4CCC)cc3)c2)cc1` [WX005], the IC50 was found to be 3.4 nM.
Turning to `CCCCOCCOc1ccc(-c2cccc(/C=C/C(=O)Nc3ccc([S+]([O-])Cc4cncn4CCCC)cc3)c2)cc1` (stereo not drawn) [WX028], the half-inhibitory concentration (IC50) was 15.5 nM.
As for `CCCCOCCOc1ccc(-c2ccc(OC(C)C)c(/C=C/C(=O)Nc3ccc([S@@+]([O-])Cc4cncn4CCC)cc3)c2)cc1` [WX033], the IC50 was 11.8 nM.
For `CCCCOCCOc1ccc(-c2ccc([S+]([O-])C(C)C)c(/C=C/C(=O)Nc3ccc([S@@+]([O-])Cc4c(C)ncn4CC)cc3)c2)cc1` (stereo partly drawn) [WX057], the IC50 was 3.5 nM.
For the compound `CCCCOc1ccc(-c2ccc(Cl)c(/C=C/C(=O)Nc3ccc([S+]([O-])Cc4cncn4CC4CC4)cc3)c2)cc1` (stereo not drawn) [WX021], the IC50 is 8.8 nM.
Consider `CCCOCCOc1ccc(-c2ccc(OC)c(/C=C/C(=O)Nc3ccc([S@@+]([O-])Cc4c(C)ncn4CC)cc3)c2)cc1` [WX065], for which the IC50 was determined as 68 nM.
